Two compounds from US7803792B2, “Quaternary ammonium compounds” (Asahi Kasei Pharma Corporation, priority 2002, dated 2010) can be followed below.

Series [1] deals with Cholic acid-loaded rat model. The series is described as follows: Bile acid-decreasing effect in portal vein of rats loaded with cholic acid (Test Example 2). In kind it is in vivo. The settings on record: 0.1 mg/kg oral with cholic acid 200 mg/kg; portal vein blood after 2 hours; HCO-60 0.1%. The protocol:
Bile Acid-Decreasing Effect in Portal Vein of Rats Loaded With Cholic Acid
In this test example, the test for confirming the bile acid-decreasing effect in portal vein of cholic acid-loaded rats was carried out according to the method described in Pharmacology and Therapeutics [Jpn Pharmacol. Ther., Vol. 24 Supplement, 1996, 103 (S-577)-110 (S-584)].
That is, 7 to 9 weeks old SD (IGS) rats were starved on the day before the test and thereafter. […] After 2 hours from the administration, a sample of blood was taken from a portal vein and total serum bile acid level was measured to study the effect of the test compound (n=6). Further, as a control group, a group (n=6) loaded with cholic acid (200 mg/kg) only was prepared and the same test procedure was followed. A commercially available kit (trade name: SOTANJUSAN-TEST WAKO-(SOTANJUSAN=total bile acid), manufactured by WAKO PURE CHEMICAL […], LTD.) was used for the measurement of bile acid. Assuming the value of the control group, which is a group in which no test compound was used, as 100%, the rate of decrease (percentage (%) of decrease) of the bile acid level when a fixed amount of the test compound was used was determined.

The subject of the next series is Caco 2 cells. The series is described as follows: Toxicity with respect to alimentary canal: cytotoxicity to Caco 2, LDH activity (Test Example 12). In kind it is cell-based, human. The settings on record: LDH activity after 2 hours, relative to cytolytic agent = 100%. Put shortly: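 Human Caco 2 intestinal cells, cultured 48 hours after seeding at 10,000 cells/well, received test compounds diluted in medium. LDH released into the medium after 2 hours was measured and expressed relative to cytolytic-agent-lysed cells (100%) as cytotoxicity.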

The next series deals with T1, rat IBAT (Rattus norvegicus, UniProt Q62633).
T1 construct: expressed in transfected cells; host or cells: Cos 7
T1 sequence (Q62633 1-348): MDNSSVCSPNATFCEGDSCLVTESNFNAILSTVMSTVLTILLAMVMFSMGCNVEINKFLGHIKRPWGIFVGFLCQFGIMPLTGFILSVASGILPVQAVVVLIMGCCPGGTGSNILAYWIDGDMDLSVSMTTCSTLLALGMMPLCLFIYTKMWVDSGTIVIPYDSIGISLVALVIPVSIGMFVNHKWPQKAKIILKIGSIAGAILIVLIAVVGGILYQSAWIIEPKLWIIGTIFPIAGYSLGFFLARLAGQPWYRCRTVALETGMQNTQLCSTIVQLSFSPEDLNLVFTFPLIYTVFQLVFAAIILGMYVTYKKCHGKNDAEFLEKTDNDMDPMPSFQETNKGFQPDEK
As to the kind of experiment: In vitro assay of temporarily expressed rat IBAT transporter using Cos 7 cells (Test Example 8). Format: cell-based. The note with it: Cos 7 cells temporarily expressing rat IBAT; [3H] taurocholate 8 μM, 37° C., 60 minutes. The protocol:
In Vitro Assay of Compounds Which Inhibit Temporarily Expressed Human IBAT Transporter or Rat IBAT Transporter Using Cos 7 Cells
In this test example, the in vitro assay of the compounds which inhibit temporarily expressed human IBAT transporter or rat IBAT transporter using Cos cells was carried out according to the method described in Am. J. Physiol., 274, G157-169.
That is, […] Cos 7 were inoculated on a 24-well cell plate. One day later, 0.3 μg per well of cDNA of a human IBAT or a rat IBAT was transfected by using FuGENE6 (manufactured by ROCHE PHARMACEUTICAL CO., LTD.). For the assay, the cells cultured for one day after the transfection were used and the following procedure was followed. The cells were washed once with an assay buffer, Hank's buffer solution containing 25 mM glucose and with 10 mM HEPES (pH 7.4), and then the assay buffer was replaced by an assay buffer to which the test compound was added. After adding [^3H] taurocholate to a final concentration of 8 μM, the cells were incubated at 37° C. for 60 minutes. [^3H] taurocholate was allowed to be incorporated in Cos 7 cells through human IBAT or rat IBAT. The reaction was stopped by washing twice with a buffer prepared by adding 1 mM taurocholate to the assay buffer and lyzing the cells with 0.2M NaOH. Measurement of radioactivity was carried out by introducing the cell lyzate in 4 ml of liquid scintillation cocktail, stirring the mixture well, and then measuring the radioactivity by a scintillation counter.

The target in the next series is T2, human IBAT (Homo sapiens, UniProt Q12908).
T2 construct: expressed in transfected cells; host or cells: Cos 7
T2 sequence (Q12908 1-348): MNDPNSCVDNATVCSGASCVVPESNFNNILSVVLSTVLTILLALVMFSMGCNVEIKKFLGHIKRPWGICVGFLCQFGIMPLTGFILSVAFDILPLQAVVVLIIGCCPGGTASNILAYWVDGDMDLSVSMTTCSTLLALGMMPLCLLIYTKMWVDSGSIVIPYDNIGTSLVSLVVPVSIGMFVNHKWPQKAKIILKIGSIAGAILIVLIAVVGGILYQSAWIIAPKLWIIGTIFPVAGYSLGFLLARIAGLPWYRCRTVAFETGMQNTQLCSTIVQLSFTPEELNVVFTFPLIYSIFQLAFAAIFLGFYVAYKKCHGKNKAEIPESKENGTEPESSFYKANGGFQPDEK
The series is described as follows: In vitro assay of temporarily expressed human IBAT transporter using Cos 7 cells (Test Example 8). The note with it: Cos 7 cells temporarily expressing human IBAT; [3H] taurocholate 8 μM, 37° C., 60 minutes. In kind it is cell-based. Put shortly:
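Cos 7 cells transiently transfected with human or rat IBAT cDNA, assayed one day later in Hank's buffer with 25 mM glucose, 10 mM HEPES (pH 7.4) plus compound. Uptake of 8 μM [^3H]taurocholate over 60 min at 37 °C, stopped with 1 mM taurocholate washes; lysate radioactivity by scintillation counting.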

Broadly, the IC50 is the concentration that inhibits the measured activity by half. Lower therefore signals greater potency. For the compound `CCCCC1(CCCC)CS(=O)(=O)c2ccc(N(C)C)cc2C(c2cccc(NC(=S)Nc3ccc(C[N+]45CCC(CC4)CC5)cc3)c2)N1.[Br-]` (stereo not drawn) [Example 3695], the “Rate of decrease (%) of bile acid” value in series [1] turned out to be 23%. Also, the “Toxicity (%) to Caco 2” value with Caco 2 cells (3 μM), with Caco 2 cells (10 μM) and with Caco 2 cells (30 μM) was below 1% each time. Besides, the half-maximal inhibitory concentration (IC50) at rat IBAT came to 5 nM; on human IBAT it was 37 nM.

`CCCCC1(CCCC)CS(=O)(=O)c2ccc(N(C)C)cc2C(c2cccc(NC(=S)CCCCC[N+]34CCC(c5ccccc5)(CC3)CC4)c2)N1` (stereo not drawn) [Example 3853]: the “Rate of decrease (%) of bile acid” value in series [1] was 36%. Moreover, the “Toxicity (%) to Caco 2” value in the series with Caco 2 cells (3 μM), in the series on Caco 2 cells (10 μM) and in the series on Caco 2 cells (30 μM) was below 1% each time. Further, the figures for the IC50 on rat IBAT and against human IBAT were 9 nM and 28 nM, respectively.
